Activity calls are given as the source filed them. No cut-off for these calls is given here.
What was measured:
L02 [1] = assay: Synergistic antiproliferative activity against human L02 cells at 2.5 to 12.5 uM measured after 72 hrs in presence of CDDO-Me by MTT assay; format: toxicity, cell-based; conditions: l02, 72 h, dose 2.5-12.5 µM
[2] = Toxicity in ICR mouse assessed as effect on ALT level at 12 umol/kg, ip measured after 12 hrs in presence of CDDO-Me; format: organism-based; conditions: in vivo, dose 12 µmol/kg
A549 [3] = assay: Antitumor activity at human A549 cells xenografted in BALB/c mouse assessed as reduction in tumor growth at 12 umol/kg, iv administered for 20 days and measured every 3 days for 21 days in presence of CDDO-Me; format: functional, organism-based; conditions: dose 12.0 µmol/kg, time 21.0 day
[4] = Toxicity in ICR mouse assessed as effect on AST level at 12 umol/kg, ip measured after 12 hrs in presence of CDDO-Me; format: organism-based; conditions: in vivo, dose 12 µmol/kg
HFL1 [5] = assay: Synergistic antiproliferative activity against human HFL1 cells at 2.5 to 12.5 uM measured after 72 hrs in presence of CDDO-Me by MTT assay; format: toxicity, cell-based; conditions: hfl1, 72 h, dose 2.5-12.5 µM
[6] = Toxicity in ICR mouse assessed as accumulation of lipid droplets in liver at 12 umol/kg, ip measured after 12 hrs by H and E staining based analysis; format: organism-based; conditions: in vivo, dose 12 µmol/kg
[7] = Toxicity in BALB/c mouse xenografted with human A549 cells assessed as change in body weight at 12 umol/kg, iv administered for 20 days and measured every 3 days for 21 days; format: organism-based; conditions: in vivo, 504 h, dose 12 µmol/kg, time 21 day
[8] = Stability of the compound in rat plasma assessed as prodrug release at 100 ug/ml measured for 8 to 12 hrs by HPLC analysis; format: ADME, cell-free; conditions: at 100 µg/mL, time 8-12 hrs
MCF7 [9] = assay: Synergistic antiproliferative activity against human MCF7 cells at 2.5 to 12.5 uM measured after 72 hrs in presence of CDDO-Me by MTT assay; format: functional, cell-based; conditions: dose 2.5-12.5 µM
HT-29 [10] = assay: Synergistic antiproliferative activity against human HT-29 cells at 2.5 to 12.5 uM measured after 72 hrs in presence of CDDO-Me by MTT assay; format: functional, cell-based; conditions: dose 2.5-12.5 µM
[11] = Toxicity in ICR mouse assessed as effect on ALT level at 12 umol/kg, ip measured after 12 hrs; format: organism-based; conditions: in vivo, dose 12 µmol/kg
A549 [12] = assay: Induction of apoptosis in human A549 cells xenografted in BALB/c mouse at 12 umol/kg, iv administered for 20 days and measured every 3 days for 21 days by H and E staining based assay; format: functional; conditions: dose 12 µmol/kg, time 21 day
MCF7 [13] = assay: Synergistic antiproliferative activity against human MCF7 cells at 2.5 to 12.5 uM measured after 72 hrs in presence of SAHA by MTT assay; format: functional, cell-based; conditions: dose 2.5-12.5 µM
A549 [14] = assay: Induction of apoptosis in human A549 cells xenografted in BALB/c mouse at 12 umol/kg, iv administered for 20 days and measured every 3 days for 21 days by TUNEL assay; format: functional, organism-based; conditions: dose 12.0 µmol/kg, time 21.0 day
[15] = molecular target: T1, Histone deacetylase (Homo sapiens) (UniProt Q13547+O15379+Q9UBN7+Q92769+Q9UQL6+Q8WUI4+Q9BY41+Q96DB2+P56524+Q9UKV0+Q969S8); assay: Inhibition of HDAC in human A549 cells assessed as activation of Bax expression at 1 to 4 uM incubated for 72 hrs in presence of SAHA by Western blot analysis; format: cell-based; conditions: dose 1-4 µM
A549 [16] = assay: Induction of necrosis in human A549 cells xenografted in BALB/c mouse at 12 umol/kg, iv administered for 20 days and measured every 3 days for 21 days by TUNEL assay; format: functional, organism-based; conditions: dose 12.0 µmol/kg, time 21.0 day
A549 [17] = assay: Induction of mitochondrial membrane depolarization in human A549 cells at 15 uM incubated for 2 hrs by JC-1 staining based analysis; format: functional, cell-based
[18] = Drug distribution in BALB/c mouse xenografted with human A549 cells assessed as increase in fluorescence in tumor signal at 20 mg/kg, iv measured after 4 to 24 hrs post injection; format: ADME, organism-based; conditions: in vivo, time 4-24 hrs
[19] = Drug localization in mitochondria of human A549 cells measured after 4 hrs by Mito Tracker Green FM based confocal laser scanning microscopy analysis; format: ADME; conditions: a549, 4 h
A549 [20] = assay: Antitumor activity at human A549 cells xenografted in BALB/c mouse assessed as reduction in tumor growth at 12 umol/kg, iv administered for 20 days and measured every 3 days for 21 days; format: functional, organism-based; conditions: dose 12.0 µmol/kg, time 21.0 day
A549 [21] = assay: Induction of necrosis in human A549 cells xenografted in BALB/c mouse at 12 umol/kg, iv administered for 20 days and measured every 3 days for 21 days by H and E staining based assay; format: functional, organism-based; conditions: dose 12.0 µmol/kg, time 21.0 day
A549 [22] = assay: Synergistic antiproliferative activity against human A549 cells at 2.5 to 12.5 uM measured after 72 hrs in presence of CDDO-Me by MTT assay; format: functional, cell-based; conditions: dose 2.5-12.5 µM
[23] = molecular target: T1, Histone deacetylase (Homo sapiens); assay: Inhibition of HDAC in human A549 cells assessed as activation of Bax expression at 1 to 4 uM incubated for 72 hrs in presence of CDDO-Me by Western blot analysis; format: cell-based; conditions: dose 1-4 µM
A549 [24] = assay: Induction of ROS accumulation in human A549 cells at 15 uM incubated for 2 hrs by DCFH2-DA staining based confocal microscopic analysis; format: functional, cell-based
HT-29 [25] = assay: Synergistic antiproliferative activity against human HT-29 cells at 2.5 to 12.5 uM measured after 72 hrs in presence of SAHA by MTT assay; format: functional, cell-based; conditions: dose 2.5-12.5 µM
L02 [26] = assay: Synergistic antiproliferative activity against human L02 cells at 2.5 to 12.5 uM measured after 72 hrs in presence of SAHA by MTT assay; format: toxicity, cell-based; conditions: l02, 72 h, dose 2.5-12.5 µM
HepG2 [27] = assay: Synergistic antiproliferative activity against human HepG2 cells at 2.5 to 12.5 uM measured after 72 hrs in presence of CDDO-Me by MTT assay; format: functional, cell-based; conditions: dose 2.5-12.5 µM
A549 [28] = assay: Synergistic antiproliferative activity against human A549 cells at 2.5 to 12.5 uM measured after 72 hrs in presence of SAHA by MTT assay; format: functional, cell-based; conditions: dose 2.5-12.5 µM
[29] = Toxicity in ICR mouse assessed as effect on AST level at 12 umol/kg, ip measured after 12 hrs; format: organism-based; conditions: in vivo, dose 12 µmol/kg
A549 [30] = assay: Induction of DNA damage in human A549 cells assessed as increase in H2AX level incubated for 72 hrs by Western blot analysis; format: functional, cell-based; conditions: dose 1-4 µM, DDE = dose-dependent effect
HepG2 [31] = assay: Synergistic antiproliferative activity against human HepG2 cells at 2.5 to 12.5 uM measured after 72 hrs in presence of SAHA by MTT assay; format: functional, cell-based; conditions: dose 2.5-12.5 µM
A549 [32] = assay: Induction of apoptosis in human A549 cells assessed as upregulation of Mcl-1 level at 1 to 4 uM incubated for 72 hrs by Western blot analysis; format: functional, cell-based; conditions: dose 1-4 µM
A549 [33] = assay: Induction of apoptosis in human A549 cells assessed as upregulation of cleaved-PARP level at 1 to 4 uM incubated for 72 hrs by Western blot analysis; format: functional, cell-based; conditions: dose 1-4 µM
A549 [34] = assay: Induction of apoptosis in human A549 cells assessed as upregulation of Bax level at 1 to 4 uM incubated for 72 hrs by Western blot analysis; format: functional, cell-based; conditions: dose 1-4 µM
HFL1 [35] = assay: Synergistic antiproliferative activity against human HFL1 cells at 2.5 to 12.5 uM measured after 72 hrs in presence of SAHA by MTT assay; format: toxicity, cell-based; conditions: hfl1, 72 h, dose 2.5-12.5 µM
[36] = molecular target: T2, Protein deacetylase HDAC6 (Homo sapiens) (UniProt Q9UBN7); assay: Inhibition of HDAC6 in human A549 cells assessed as reduction in HDAC expression at 1 to 4 uM incubated for 72 hrs by Western blot analysis; format: cell-based; conditions: dose 1-4 µM
T2 sequence (whole entry): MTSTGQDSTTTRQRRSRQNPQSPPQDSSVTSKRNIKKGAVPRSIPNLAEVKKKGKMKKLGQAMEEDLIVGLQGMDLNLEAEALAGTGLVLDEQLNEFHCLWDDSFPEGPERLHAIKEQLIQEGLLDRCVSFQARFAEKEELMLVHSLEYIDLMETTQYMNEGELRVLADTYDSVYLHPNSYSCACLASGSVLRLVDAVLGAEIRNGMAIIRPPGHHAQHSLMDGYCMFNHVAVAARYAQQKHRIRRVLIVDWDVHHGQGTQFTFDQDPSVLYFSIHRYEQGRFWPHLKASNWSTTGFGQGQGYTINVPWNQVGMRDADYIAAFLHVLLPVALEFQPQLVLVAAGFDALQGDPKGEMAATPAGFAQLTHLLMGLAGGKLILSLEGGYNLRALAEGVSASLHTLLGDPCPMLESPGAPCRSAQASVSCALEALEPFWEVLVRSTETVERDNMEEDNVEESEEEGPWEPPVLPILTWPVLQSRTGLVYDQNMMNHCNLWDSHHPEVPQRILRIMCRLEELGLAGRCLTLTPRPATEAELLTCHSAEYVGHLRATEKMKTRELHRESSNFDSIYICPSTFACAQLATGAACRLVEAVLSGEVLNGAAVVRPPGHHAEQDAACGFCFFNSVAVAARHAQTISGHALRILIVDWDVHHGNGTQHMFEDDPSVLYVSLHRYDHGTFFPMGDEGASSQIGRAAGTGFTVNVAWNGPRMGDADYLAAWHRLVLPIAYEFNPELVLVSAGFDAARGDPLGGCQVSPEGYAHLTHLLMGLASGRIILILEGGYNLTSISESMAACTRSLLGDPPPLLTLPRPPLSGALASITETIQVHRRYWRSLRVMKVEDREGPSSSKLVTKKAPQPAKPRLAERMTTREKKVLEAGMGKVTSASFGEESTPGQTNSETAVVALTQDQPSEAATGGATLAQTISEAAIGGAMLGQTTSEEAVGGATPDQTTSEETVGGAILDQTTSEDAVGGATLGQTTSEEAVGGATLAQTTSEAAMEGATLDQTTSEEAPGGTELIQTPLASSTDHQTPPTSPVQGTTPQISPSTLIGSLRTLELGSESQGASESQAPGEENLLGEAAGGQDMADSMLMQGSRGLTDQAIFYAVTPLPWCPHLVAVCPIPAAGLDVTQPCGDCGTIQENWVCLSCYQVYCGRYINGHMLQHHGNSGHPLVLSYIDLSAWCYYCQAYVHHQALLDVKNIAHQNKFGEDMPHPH

[37] = Stability of the compound in rat plasma assessed as prodrug release at 100 ug/ml measured for 8 hrs by HPLC analysis; format: ADME, cell-free; conditions: at 100 µg/mL

Structure (SMILES): O=C(CCCCCCC(=O)Nc1ccccc1)NO [VORINOSTAT]
- Activity (L02 [1]): Non-Toxic
- Activity [2]: Toxic
- Activity (A549 [3]): Active
- Activity [4]: Toxic
- Activity (HFL1 [5]): Non-Toxic

Structure (SMILES): COC(=O)[C@]12CCC(C)(C)C[C@H]1[C@H]1C(=O)C=C3[C@@]4(C)C(ONC(=O)CCCCCCC(=O)Nc5ccccc5)C(C#N)=C(OCc5ccc(OC(=O)C(C)SCCCSC(C)C(=O)Oc6ccc7c(c6)OC6=C(/C=C/C8=[N+](CCCc9cn(CCOCCOCCNC(=O)CCCC[C@H]%10SC[C@H]%11NC(=O)N[C@H]%11%10)nn9)c9ccc%10ccccc%10c9C8(C)C)CCCC6=C7)cc5)C(C)(C)[C@@H]4CC[C@@]3(C)[C@]1(C)CC2.[I-] (some centres undefined)
- Activity [6]: Non-Toxic
- Activity [7]: Non-Toxic
- Drug metabolism [8]: 20%
- Activity (MCF7 [9]): Active
- Activity (HT-29 [10]): Active
- Activity [11]: Non-Toxic
- Activity (A549 [12]): 53.3%
- Activity (MCF7 [13]): Active
- Activity (L02 [1]): Non-Toxic
- Activity (A549 [14]): Active
- inhibition [15]: Active
- Activity (A549 [16]): Active
- Activity (A549 [17]): Active
- Drug uptake [18]: Active
- Drug uptake [19]: Active
- Activity (A549 [20]): Active
- Activity (A549 [21]): Active
- Activity (A549 [22]): Active
- inhibition [23]: Active
- Activity (A549 [24]): Active
- Activity (HT-29 [25]): Active
- Activity (L02 [26]): Non-Toxic
- Activity (HepG2 [27]): Active
- Activity (A549 [28]): Active
- Activity [29]: Non-Toxic
- Activity (A549 [30]): Dde
- Activity (HepG2 [31]): Active
- Activity (A549 [32]): Active
- Activity (A549 [33]): Active
- Activity (A549 [34]): Active
- Activity (HFL1 [35]): Non-Toxic
- inhibition [36]: Active
- Drug metabolism [37]: < 10%
- Activity (HFL1 [5]): Non-Toxic

Source: ChEMBL document CHEMBL5137072, “Redox-Activatable Theranostic Co-Prodrug for Precise Tumor Diagnosis and Selective Combination Chemotherapy” (J Med Chem, 2022)
